Where “and” joins values, the source holds several entries; their conditions need not be identical. Equal entries are not always repeated.
Assay: Body weight in the orthotopic PC-3 prostate cancer model
Procedure: Mice were weighed twice a week, and after 4 weeks, mice were sacrificed. Gross necropsy was performed to all animals at the end of the study, and all macroscopic signs were recorded. Volume of the prostate tumors was measured and prostate as well as prostate draining lymph nodes were collected for histology. The number of metastasis in lymph nodes was determined under microscope.
The animals were weighed twice a week. For the last 5 days of the study, the animals were observed daily to monitor the progression of disease. Appearance of any clinical signs was recorded on follow-up forms. Analgesic was given if needed.
At the end of the study, the animals were weighed and sacrificed with cervical dislocation under anesthesia. Necropsy was carried out in all animals. Macroscopic findings were recorded on the follow-up forms. Tissue samples from prostate with tumor and lymph nodes were collected for histology and number of metastases in lymph nodes was determined.
Statistical analysis was performed with R: A Language and Environment for Statistical Computing (version 2.14.2; R Development Core Team, Vienna, Austria). The mean and standard deviation of the body weights and the tumor volumes at sacrifice were determined. Normality of the distributions and homogeneity of variance were checked before further analyses. In case of violating these assumptions, either log transformation or other appropriate transformation (e.g. square root, reciprocal) was applied. If the assumptions were fulfilled as such or after transformation, one-way ANOVA was used to study if the values obtained between the groups were statistically different (with p<0.05). If differences were found, Tukey's HSD test was used for pairwise comparison between all groups. If the assumptions were not fulfilled even after the transformations described above, the non-parametric Kruskal-Wallis test followed by Mann-Whitney U-test were used.
We have studied the effects of Val201 on cell proliferation of the ER positive human prostate cancer cell line PC-3 in vitro and growth and metastatis in vivo in an orthotopic xenograft model. The proliferation effects were studied for 100 pM, 1 nM, 10 nM, 100 nM and 1 μM concentrations of VAL201 by measuring WST-1 values at days 3, 5, 7 and 9. Groups with vehicle and 1 μM gemcitabine as reference compound were included in the study. […] PC-3 cells in Matrigel were inoculated orthotopically into the prostate. Subcutaneous dosing was started at day 1 and continued daily for 28 days. The mice were weighed twice a week. Orthotopic tumors were measured by calliper and the prostate and the regional lymph nodes were harvested at sacrifice. Metastases in lymph nodes were determined from HE stained paraffin sections.

Ac-PPPHPHARIK-NH2 [VAL001]
Body weight at sacrifice relative to maximum weight (0.004 mg/kg, mean): 96.6
Body weight at sacrifice relative to maximum weight (0.004 mg/kg, single animals): 95.1 (2×) and 100.0 and 93.8 and 95.7 and 97.9 and 94.1 and 97.8 and 97.6 and 99.2
Body weight at sacrifice relative to maximum weight (0.04 mg/kg, mean): 96.1
Body weight at sacrifice relative to maximum weight (0.04 mg/kg, single animals): 100.0 and 96.1 and 94.9 and 96.7 and 93.8 and 93.0 and 94.8 and 98.0 (2×) and 96.2
Body weight at sacrifice relative to maximum weight (0.4 mg/kg, mean): 97.6
Body weight at sacrifice relative to maximum weight (0.4 mg/kg, single animals): 98.2 and 91.1 and 96.6 and 90.7 and 100.0 (4×) and 99.5 and 99.6
Body weight at sacrifice relative to maximum weight (4 mg/kg, mean): 95.3
Body weight at sacrifice relative to maximum weight (4 mg/kg, single animals): 100.0 and 90.8 and 86.2 and 95.7 and 96.8 and 95.5 and 98.2 and 98.4 and 98.0 and 93.3
